Values quoted from earlier work, collected in patent US20250213563A1, “SUBSTITUTED PYRIMIDIN-4(3H)-ONES FOR USE IN TREATING CANCER” (NAVIRE PHARMA, INC., priority 2021, published 2025).
“Also recorded” adds a separate entry of the source.

Legend:
[1] = cited from earlier work
[2] = system: DUSP6 mRNA in tumors; details: at ≥20 mg daily; cited from earlier work
[3] = system: pERK in tumors; details: at ≥20 mg daily; cited from earlier work

Compound	Human DLTs ([1]; comparator SHP2 inhibitors)	Human Half life ([1]; comparator SHP2 inhibitors) [h]	Human PD: DUSP6 mRNA inhibition in tumors [2] [% DUSP6 mRNA]	most common AEs ([1]; Human DLTs)	patients in whom AEs lead to dose interruption ([1]; Human DLTs)	Human PD: pERK inhibition in half of tumors analyzed [3] [% pERKinhibition]
C[C@@H]1OCC2(CCN(c3cnc(Sc4ccnc(N)c4Cl)c(N)n3)CC2)[C@@H]1N [TNO-155]	LVEF decrease, liver; also recorded: enzyme elevation,; also recorded: diarrhea	35	>50			
Cc1nc(N2CCC3(CC2)CO[C@@H](C)[C@H]3N)c(CO)nc1Sc1ccnc(N)c1Cl [RMC-4630]		28 to 33		patients; diarrhea,; also recorded: thrombocytopenia,; also recorded: edema are most	interruption in 50%	>30
